Measurements as given in ChEMBL document CHEMBL1201862, “PubChem BioAssay data set” (2004).
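Dose response: 5 concentrations. Exposure: 48 h. Format: 96-well plates. Endpoint: linear interpolation; highest concentration if not reached. GI50 marks 50% less growth.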 Calls of active or inactive are those of the source. Cut-off read from the data, not from the text of the source: active = GI50 up to about 1.1 µM and inactive = higher.

What was measured:
Assay in all cases: NCI anticancer screen, dose series, 48 h
CAKI-1 = test system: CAKI-1
SN12C = test system: SN12C
SK-MEL-5 = test system: SK-MEL-5
NCI-H460 = test system: NCI-H460
RPMI-8226 = test system: RPMI-8226
NCI-H226 = test system: NCI-H226
SF-295 = test system: SF-295
HL-60 = test system: HL-60
SK-OV-3 = test system: SK-OV-3
MOLT-4 = test system: MOLT-4
KM12 = test system: KM12
MDA-MB-231 = test system: MDA-MB-231
NCI-H23 = test system: NCI-H23
SR = test system: SR
DU-145 = test system: DU-145
MDA-N = test system: MDA-N
A498 = test system: A498
HCT-15 = test system: HCT-15
OVCAR-8 = test system: OVCAR-8
U-251 = test system: U-251
K562 = test system: K562
SNB-19 = test system: SNB-19
BT-549 = test system: BT-549
COLO 205 = test system: COLO 205
SK-MEL-28 = test system: SK-MEL-28
M14 = test system: M14
NCI/ADR-RES = test system: NCI/ADR-RES
SW-620 = test system: SW-620
PC-3 = test system: PC-3
UO-31 = test system: UO-31
786-0 = test system: 786-0
OVCAR-3 = test system: OVCAR-3
TK-10 = test system: TK-10
Malme-3M = test system: Malme-3M
HOP-62 = test system: HOP-62
HT-29 = test system: HT-29
EKVX = test system: EKVX
UACC-62 = test system: UACC-62
SNB-75 = test system: SNB-75
OVCAR-4 = test system: OVCAR-4
Hs-578T = test system: Hs-578T
IGROV-1 = test system: IGROV-1
HCC 2998 = test system: HCC 2998
CCRF-CEM = test system: CCRF-CEM
ACHN = test system: ACHN
A549 = test system: A549
LOX IMVI = test system: LOX IMVI
SF-268 = test system: SF-268
OVCAR-5 = test system: OVCAR-5
RXF 393 = test system: RXF 393
SF-539 = test system: SF-539
MDA-MB-435 = test system: MDA-MB-435
MCF7 = test system: MCF7
HCT-116 = test system: HCT-116
UACC-257 = test system: UACC-257
SK-MEL-2 = test system: SK-MEL-2
NCI-H522 = test system: NCI-H522
HOP-92 = test system: HOP-92

COc1ccc(C2C3=C(COC3=O)Oc3cc4c(cc32)OCO4)c(OC)c1 (stereo not drawn) was tested, and the GI50 (CAKI-1) was 18.6 µM (inactive), the GI50 (SN12C) was 6.75 µM (inactive) and the GI50 (SK-MEL-5) was 10.7 µM (inactive). For the same compound, the GI50 (NCI-H460) was 17.4 µM (inactive), the GI50 (RPMI-8226) was 7.74 µM (inactive) and the GI50 (NCI-H226) was 31.8 µM (inactive). The GI50 (SF-295) was 5.77 µM (inactive), the GI50 (HL-60) was 4.34 µM (inactive) and the GI50 (SK-OV-3) was 17.3 µM (inactive). For the same compound, the GI50 (MOLT-4) was 4.28 µM (inactive), the GI50 (KM12) was 5.19 µM (inactive) and the GI50 (MDA-MB-231) was 9.04 µM (inactive). For the same compound, the GI50 (NCI-H23) was 19 µM (inactive), the GI50 (SR) was 4.99 µM (inactive) and the GI50 (DU-145) was 26.3 µM (inactive). The GI50 (MDA-N) was 2.09 µM (inactive), the GI50 (A498) was 16.1 µM (inactive) and the GI50 (HCT-15) was 5.73 µM. The GI50 (OVCAR-8) was 44.4 µM (inactive), the GI50 (U-251) was 19.3 µM (inactive) and the GI50 (K562) was 4.3 µM (inactive). For the same compound, the GI50 (SNB-19) was 37.8 µM (inactive), the GI50 (BT-549) was 22.9 µM (inactive) and the GI50 (COLO 205) was 7 µM (inactive). For the same compound, the GI50 (SK-MEL-28) was 23 µM (inactive), the GI50 (M14) was 15 µM (inactive) and the GI50 (NCI/ADR-RES) was 10 µM (inactive). For the same compound, the GI50 (SW-620) was 5.81 µM (inactive), the GI50 (PC-3) was 6.75 µM (inactive) and the GI50 (UO-31) was 16.3 µM (inactive). The GI50 (786-0) was 21.7 µM (inactive), the GI50 (OVCAR-3) was 5.52 µM (inactive) and the GI50 (TK-10) was 62.1 µM (inactive). For the same compound, the GI50 (Malme-3M) was 14.9 µM (inactive), the GI50 (HOP-62) was 30.3 µM (inactive) and the GI50 (HT-29) was 6.65 µM (inactive). The GI50 (EKVX) was 48.5 µM (inactive), the GI50 (UACC-62) was 6.79 µM (inactive) and the GI50 (SNB-75) was 10.9 µM (inactive). The GI50 (OVCAR-4) was 8.11 µM (inactive), the GI50 (Hs-578T) was 13.6 µM (inactive) and the GI50 (IGROV-1) was 12.9 µM (inactive). The GI50 (HCC 2998) was 20.8 µM (inactive), the GI50 (CCRF-CEM) was 11.1 µM (inactive) and the GI50 (ACHN) was 19.9 µM (inactive). The GI50 (A549) was 10.9 µM (inactive), the GI50 (LOX IMVI) was 4.31 µM (inactive) and the GI50 (SF-268) was 34 µM (inactive). The GI50 (OVCAR-5) was 43.5 µM (inactive), the GI50 (RXF 393) was 16.1 µM (inactive) and the GI50 (SF-539) was 12.6 µM (inactive). The GI50 (MDA-MB-435) was 2.28 µM (inactive), the GI50 (MCF7) was 6.89 µM (inactive) and the GI50 (HCT-116) was 6.24 µM (inactive). The GI50 (UACC-257) was 47.9 µM (inactive).

For O=C1C=C(Sc2ccccc2)c2nccc3c2c1nc1ccccc13, the GI50 (CAKI-1) was 44.2 µM (inactive), the GI50 (SN12C) was 17.8 µM (inactive) and the GI50 (SK-MEL-2) was 14.2 µM (inactive). The GI50 (NCI-H460) was 23.6 µM (inactive), the GI50 (RPMI-8226) was 28.1 µM (inactive) and the GI50 (NCI-H226) was 72.6 µM (inactive). The GI50 (SF-295) was 29.4 µM (inactive), the GI50 (HL-60) was 2.08 µM (inactive) and the GI50 (SK-OV-3) was 80 µM (inactive). For the same compound, the GI50 (MOLT-4) was 4.27 µM (inactive), the GI50 (KM12) was 16.7 µM (inactive) and the GI50 (MDA-MB-231) was 20 µM (inactive). The GI50 (NCI-H23) was 23.6 µM (inactive), the GI50 (SR) was 5.92 µM (inactive) and the GI50 (DU-145) was 40.9 µM (inactive). For the same compound, the GI50 (MDA-N) was 16.9 µM (inactive), the GI50 (HCT-15) was 12.2 µM and the GI50 (OVCAR-8) was 18.1 µM (inactive). For the same compound, the GI50 (U-251) was 18.5 µM (inactive), the GI50 (K562) was 0.0234 µM (active) and the GI50 (SNB-19) was 37.2 µM (inactive). For the same compound, the GI50 (BT-549) was 16 µM (inactive), the GI50 (COLO 205) was 16.6 µM (inactive) and the GI50 (SK-MEL-28) was 19.3 µM (inactive). The GI50 (NCI-H522) was 2.33 µM (inactive), the GI50 (M14) was 13.3 µM (inactive) and the GI50 (NCI/ADR-RES) was 21.8 µM (inactive). The GI50 (SW-620) was 14.8 µM (inactive), the GI50 (PC-3) was 13.3 µM (inactive) and the GI50 (UO-31) was 12.8 µM (inactive). The GI50 (786-0) was 16.9 µM (inactive), the GI50 (OVCAR-3) was 3.35 µM (inactive) and the GI50 (TK-10) was 31.1 µM (inactive). For the same compound, the GI50 (Malme-3M) was 12.2 µM (inactive), the GI50 (HOP-62) was 14 µM (inactive) and the GI50 (HT-29) was 11.2 µM (inactive). The GI50 (EKVX) was 20.7 µM (inactive), the GI50 (UACC-62) was 15.5 µM (inactive) and the GI50 (SNB-75) was 33.3 µM (inactive). For the same compound, the GI50 (OVCAR-4) was 16.1 µM (inactive), the GI50 (Hs-578T) was 15.8 µM (inactive) and the GI50 (IGROV-1) was 11.2 µM (inactive). For the same compound, the GI50 (HCC 2998) was 17.5 µM (inactive), the GI50 (CCRF-CEM) was 3.13 µM (inactive) and the GI50 (ACHN) was 19.3 µM (inactive). The GI50 (A549) was 31.5 µM (inactive), the GI50 (LOX IMVI) was 11.8 µM (inactive) and the GI50 (SF-268) was 12.4 µM (inactive). For the same compound, the GI50 (OVCAR-5) was 32.4 µM (inactive), the GI50 (HOP-92) was 17.9 µM (inactive) and the GI50 (SF-539) was 17.1 µM (inactive). The GI50 (MDA-MB-435) was 16.9 µM (inactive), the GI50 (MCF7) was 14.9 µM (inactive) and the GI50 (HCT-116) was 15.1 µM (inactive). For the same compound, the GI50 (UACC-257) was 15.5 µM (inactive).

CC(C)(C)/N=c1/n(C(C)(C)C)oc(=O)n1C(C)(C)C was tested, and the GI50 (CAKI-1) was > 100 µM (inactive), the GI50 (SN12C) was > 100 µM (inactive) and the GI50 (SK-MEL-2) was > 100 µM (inactive). The GI50 (SK-MEL-5) was > 100 µM (inactive), the GI50 (NCI-H460) was > 100 µM (inactive) and the GI50 (NCI-H226) was > 100 µM (inactive). For the same compound, the GI50 (SF-295) was > 100 µM (inactive), the GI50 (HL-60) was > 100 µM (inactive) and the GI50 (SK-OV-3) was > 100 µM (inactive). The GI50 (MOLT-4) was > 100 µM (inactive), the GI50 (KM12) was > 100 µM (inactive) and the GI50 (MDA-MB-231) was > 100 µM (inactive). For the same compound, the GI50 (NCI-H23) was 81.1 µM (inactive), the GI50 (SR) was > 100 µM (inactive) and the GI50 (MDA-N) was > 100 µM (inactive). The GI50 (A498) was > 100 µM (inactive), the GI50 (HCT-15) was over 100 µM and the GI50 (OVCAR-8) was > 100 µM (inactive). For the same compound, the GI50 (U-251) was > 100 µM (inactive), the GI50 (K562) was > 100 µM (inactive) and the GI50 (SNB-19) was > 100 µM (inactive). The GI50 (BT-549) was > 100 µM (inactive), the GI50 (COLO 205) was > 100 µM (inactive) and the GI50 (SK-MEL-28) was > 100 µM (inactive). The GI50 (M14) was > 100 µM (inactive), the GI50 (NCI/ADR-RES) was > 100 µM (inactive) and the GI50 (SW-620) was > 100 µM (inactive). For the same compound, the GI50 (PC-3) was > 100 µM (inactive), the GI50 (UO-31) was > 100 µM (inactive) and the GI50 (786-0) was > 100 µM (inactive). The GI50 (OVCAR-3) was > 100 µM (inactive), the GI50 (TK-10) was > 100 µM (inactive) and the GI50 (Malme-3M) was > 100 µM (inactive). The GI50 (HOP-62) was > 100 µM (inactive), the GI50 (HT-29) was > 100 µM (inactive) and the GI50 (EKVX) was > 100 µM (inactive). The GI50 (UACC-62) was > 100 µM (inactive), the GI50 (SNB-75) was 99.5 µM (inactive) and the GI50 (OVCAR-4) was > 100 µM (inactive). For the same compound, the GI50 (Hs-578T) was > 100 µM (inactive), the GI50 (IGROV-1) was > 100 µM (inactive) and the GI50 (HCC 2998) was > 100 µM (inactive). For the same compound, the GI50 (CCRF-CEM) was > 100 µM (inactive), the GI50 (ACHN) was > 100 µM (inactive) and the GI50 (A549) was > 100 µM (inactive). For the same compound, the GI50 (LOX IMVI) was > 100 µM (inactive), the GI50 (OVCAR-5) was > 100 µM (inactive) and the GI50 (HOP-92) was > 100 µM (inactive). The GI50 (RXF 393) was > 100 µM (inactive), the GI50 (SF-539) was > 100 µM (inactive) and the GI50 (MCF7) was > 100 µM (inactive). The GI50 (HCT-116) was > 100 µM (inactive) and the GI50 (UACC-257) was > 100 µM (inactive).
